Laboratory results: US20200121716A1, “Method for Inhibiting Both Glycolysis and Glutamine Metabolism in Cells and Use Thereof” (priority 2017, published 2020)

System: anaerobia
Assay: spontaneous anaerobic fermentation of flour paste sealed with rapeseed oil
Type: cell-based

| Compound | aqueous solution above the settled flour |
| --- | --- |
| O=CO [formic acid] | clear and transparent |
| O=C([O-])C(=O)[O-].[Na+].[Na+] [sodium oxalate] | clear and transparent |
